Reference: patent US9006224B2, “Neuroendocrine tumor treatment” (Novartis AG, priority 2005, dated 2015)

Columns and labels:
Format in all cases: cell-based
[1] = tested on: cells which are otherwise resistant to endocrine agent treatment; experiment: In vitro studies: restoring activity of endocrine agents in resistant cells
From the text: Several studies have implicated aberrant activity of the Akt kinase as a significant mechanism by which breast cancer tumors are unresponsive to endocrine therapy.

KB-31 = experiment: Antiproliferative activity, methylene blue staining, KB-31 line
Description: (§1) Subsequently, a two-fold dilution series of each compound (an mTOR inhibitor other than Compound A or a known chemotherapeutic agent) is made in separate tubes (starting at 8× the IC50 of each compound) either alone or in paired combinations, and the dilutions are added to the wells.
(§2) The cells are then re-incubated for 3 days. Methylene blue staining is performed on day 4 and the amount of bound dye (proportional to the number of surviving cells that bind the dye) determined. IC50s are subsequently determined using the Calcusyn program, which provides a measure of the interaction, namely the so-called non-exclusive combination index (CI), where: CI˜1=the interaction is nearly additive; 0.85-0.9=slight synergism; <0.85=synergy.

HCT116 = experiment: Antiproliferative activity, methylene blue staining, HCT116 line
Description: as §1, §2

A549 line = experiment: Antiproliferative activity, methylene blue staining, A549 line
Description: as §1, §2

[2] = tested on: A cell line, e.g. A549, KB-31 and HCT116 lines; experiment: Antiproliferative activity in combination with other agents (Calcusyn combination index); conditions: e.g. with somastatin or a somastatin analogue, 3 days incubation, methylene blue staining
Description: as §1, §2

- IC50 (KB-31): micromolar range
- IC50 (HCT116): micromolar range
- IC50 (A549 line): low nM range
SMILES: CO[C@H]1C[C@@H]2CC[C@@H](C)[C@@](O)(O2)C(=O)C(=O)N2CCCC[C@H]2C(=O)O[C@H]([C@H](C)C[C@@H]2CC[C@@H](OCCO)[C@H](OC)C2)CC(=O)[C@H](C)/C=C(\C)[C@@H](O)[C@@H](OC)C(=O)[C@H](C)C[C@H](C)/C=C/C=C/C=C/1C [Compound A, 40-O-(2-hydroxyethyl)-rapamycin]
- restoration of activity of endocrine agents (estrogen inhibitors and/or aromatase inhibitors) [1]: able to restore activity of endocrine agents
- antiproliferative activity in combination with another chemotherapeutic agent [2]: interesting antiproliferative activity
